Experiment in all cases: relative viability (nuclei count vs DMSO), 5 days (fraction); higher = more cells survive
Compound in the assay “kb NB 142-70 + Lapatinib”: C1CSC2=C(C(=O)N1)SC3=C2C=C(C=C3)O [kb NB 142-70] + CS(=O)(=O)CCNCc1ccc(-c2ccc3ncnc(Nc4ccc(OCc5cccc(F)c5)c(Cl)c4)c3c2)o1 [Lapatinib] (partner 2 µM)
In outline: (§1)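 Each reported value is a median over duplicate plates. It expresses relative viability: treated-well nuclei count divided by vehicle-well nuclei count. Lung cancer cell lines in 1536-well plates were dosed by pin tool a day after seeding, alone with one drug or with a fixed anchor-drug dose plus five library-drug doses (not always all listed) in √10 steps, and nuclei were counted after 5 days.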

Compound in assay [1]: C1CSC2=C(C(=O)N1)SC3=C2C=C(C=C3)O [kb NB 142-70] + CC(=O)Nc1cccc(-n2c(=O)n(C3CC3)c(=O)c3c(Nc4ccc(I)cc4F)n(C)c(=O)c(C)c32)c1 [Trametinib] (partner 0.02 µM)
The method, boiled down:
as §1

Compound in assay [2]: NCC(=O)Nc1ccc(-n2nc(C(F)(F)F)cc2-c2ccc3c(ccc4ccccc43)c2)cc1 + C[C@@H](Oc1cc(-c2cnn(C3CCNCC3)c2)cnc1N)c1c(Cl)ccc(F)c1Cl [Crizotinib] (partner 1 µM)
The method, boiled down: as §1

Compound in assay [3]: NCC(=O)Nc1ccc(-n2nc(C(F)(F)F)cc2-c2ccc3c(ccc4ccccc43)c2)cc1 + O=C(c1cc(Cc2n[nH]c(=O)c3ccccc23)ccc1F)N1CCN(C(=O)C2CC2)CC1 [Olaparib] (partner 8 µM)
The method, boiled down: as §1

Compound in the assay “kb NB 142-70 + Dasatinib”: C1CSC2=C(C(=O)N1)SC3=C2C=C(C=C3)O [kb NB 142-70] + Cc1nc(Nc2ncc(C(=O)Nc3c(C)cccc3Cl)s2)cc(N2CCN(CCO)CC2)n1 [Dasatinib] (partner 0.075 µM)
In outline: as §1

On to 201T, for which the relative viability with kb NB 142-70 + Lapatinib (first compound 0.1 µM) was 1.05; with kb NB 142-70 + Lapatinib (first compound 1 µM), 1.06; in the assay with kb NB 142-70 + Lapatinib (first compound 3.162 µM) it was 1.06; in assay [1] (first compound 0.1 µM) it was 0.687; in assay [1] (first compound 1 µM), 0.727; in assay [1] (first compound 3.162 µM), 0.752. Besides, the relative viability in assay [2] (first compound 0.02 µM) came out at 1.02; in assay [2] (first compound 0.06325 µM), 1.02; in assay [2] (first compound 0.2 µM), 1.01; in assay [2] (first compound 0.6325 µM) it was 1.03; in assay [2] (first compound 2 µM), 0.984; in assay [3] (first compound 0.02 µM) it was 0.867. Besides, the relative viability came out at 0.868 in assay [3] (first compound 0.06325 µM); 0.856 in assay [3] (first compound 0.2 µM); 0.879 in assay [3] (first compound 0.6325 µM); 0.844 in assay [3] (first compound 2 µM); 0.596 in the assay with kb NB 142-70 + Dasatinib (first compound 0.1 µM); 0.47 in the assay with kb NB 142-70 + Dasatinib (first compound 1 µM). The relative viability with kb NB 142-70 + Dasatinib (first compound 3.162 µM) was found to be 0.565.
Regarding A549, the relative viability with kb NB 142-70 + Lapatinib (first compound 0.1 µM) was 0.979; with kb NB 142-70 + Lapatinib (first compound 1 µM) it was 0.928; in the assay with kb NB 142-70 + Lapatinib (first compound 3.162 µM) it was 0.428; in assay [2] (first compound 0.02 µM), 0.762; in assay [2] (first compound 0.06325 µM), 0.755; in assay [2] (first compound 0.2 µM) it was 0.774. The relative viability in assay [2] (first compound 0.6325 µM) is 0.767; in assay [2] (first compound 2 µM), 0.826; in assay [3] (first compound 0.02 µM), 0.294; in assay [3] (first compound 0.06325 µM), 0.291; in assay [3] (first compound 0.2 µM), 0.339; in assay [3] (first compound 0.6325 µM) it was 0.29. Also, the relative viability in assay [3] (first compound 2 µM) is 0.239.
Regarding A-427, the relative viability in the assay with kb NB 142-70 + Lapatinib (first compound 0.1 µM) was determined as 1.12; with kb NB 142-70 + Lapatinib (first compound 1 µM), 1.14; with kb NB 142-70 + Lapatinib (first compound 3.162 µM), 1.04; in assay [1] (first compound 0.1 µM), 0.841; in assay [1] (first compound 1 µM), 0.764; in assay [1] (first compound 3.162 µM), 0.726. In addition, the relative viability came out at 0.87 in assay [2] (first compound 0.02 µM); 0.848 in assay [2] (first compound 0.06325 µM); 1.04 in assay [2] (first compound 0.2 µM); 0.935 in assay [2] (first compound 0.6325 µM); 0.865 in assay [2] (first compound 2 µM); 0.701 in assay [3] (first compound 0.02 µM). The relative viability stood at 0.742 in assay [3] (first compound 0.06325 µM); 0.679 in assay [3] (first compound 0.2 µM); 0.776 in assay [3] (first compound 0.6325 µM); 0.781 in assay [3] (first compound 2 µM); 0.8 in the assay with kb NB 142-70 + Dasatinib (first compound 0.1 µM); 0.612 with kb NB 142-70 + Dasatinib (first compound 1 µM). Further, the relative viability with kb NB 142-70 + Dasatinib (first compound 3.162 µM) came out at 0.607.
For ABC-1, the relative viability in the assay with kb NB 142-70 + Lapatinib (first compound 0.1 µM) amounted to 0.946; with kb NB 142-70 + Lapatinib (first compound 1 µM), 1.22; with kb NB 142-70 + Lapatinib (first compound 3.162 µM), 1.07; in assay [2] (first compound 0.02 µM), 1.33; in assay [2] (first compound 0.06325 µM) it was 1.77; in assay [2] (first compound 0.6325 µM), 1.04. The relative viability in assay [2] (first compound 2 µM) is 0.992; in assay [3] (first compound 0.02 µM), 0.594; in assay [3] (first compound 0.06325 µM), 0.671; in assay [3] (first compound 0.6325 µM), 0.921; in assay [3] (first compound 2 µM) it was 0.78; with kb NB 142-70 + Dasatinib (first compound 0.1 µM), 0.663. Besides, the relative viability in the assay with kb NB 142-70 + Dasatinib (first compound 1 µM) is 0.49; in the assay with kb NB 142-70 + Dasatinib (first compound 3.162 µM), 0.361.
On to BEN, for which the relative viability in the assay with kb NB 142-70 + Lapatinib (first compound 0.1 µM) amounted to 0.731; in the assay with kb NB 142-70 + Lapatinib (first compound 1 µM) it was 0.66; in the assay with kb NB 142-70 + Lapatinib (first compound 3.162 µM), 0.519; in assay [1] (first compound 0.1 µM), 1.02; in assay [1] (first compound 1 µM), 0.99; in assay [1] (first compound 3.162 µM), 0.892. Further, the relative viability in assay [2] (first compound 0.02 µM) is 0.923; in assay [2] (first compound 0.06325 µM) it was 0.997; in assay [2] (first compound 0.2 µM), 0.837; in assay [2] (first compound 0.6325 µM), 0.965; in assay [2] (first compound 2 µM) it was 0.9; in assay [3] (first compound 0.02 µM), 1. The relative viability was determined as 1.23 in assay [3] (first compound 0.06325 µM); 0.993 in assay [3] (first compound 0.2 µM); 1.21 in assay [3] (first compound 0.6325 µM); 1.03 in assay [3] (first compound 2 µM); 0.307 with kb NB 142-70 + Dasatinib (first compound 0.1 µM); 0.303 with kb NB 142-70 + Dasatinib (first compound 1 µM). In addition, in the assay with kb NB 142-70 + Dasatinib (first compound 3.162 µM), the relative viability was 0.209.
For Calu-6, the relative viability with kb NB 142-70 + Lapatinib (first compound 0.1 µM) worked out at 1.07; with kb NB 142-70 + Lapatinib (first compound 1 µM) it was 0.972; with kb NB 142-70 + Lapatinib (first compound 3.162 µM), 0.627; in assay [2] (first compound 0.02 µM), 0.862; in assay [2] (first compound 0.06325 µM) it was 0.854; in assay [2] (first compound 0.2 µM) it was 0.853. In addition, the relative viability in assay [2] (first compound 0.6325 µM) was found to be 0.838; in assay [2] (first compound 2 µM), 0.774; in assay [3] (first compound 0.02 µM), 0.568; in assay [3] (first compound 0.06325 µM), 0.578; in assay [3] (first compound 0.2 µM) it was 0.553; in assay [3] (first compound 0.6325 µM), 0.562. Moreover, in assay [3] (first compound 2 µM), the relative viability worked out at 0.571.
As for ChaGo-K-1, the relative viability came to 0.883 in assay [1] (first compound 0.1 µM); 0.875 in assay [1] (first compound 1 µM); 0.876 in assay [1] (first compound 3.162 µM); 1.14 in assay [2] (first compound 0.02 µM); 1.08 in assay [2] (first compound 0.06325 µM); 1.01 in assay [2] (first compound 0.2 µM). In addition, the relative viability was found to be 1.05 in assay [2] (first compound 0.6325 µM); 1.03 in assay [2] (first compound 2 µM); 0.443 in assay [3] (first compound 0.02 µM); 0.488 in assay [3] (first compound 0.06325 µM); 0.388 in assay [3] (first compound 0.2 µM); 0.443 in assay [3] (first compound 0.6325 µM). The relative viability in assay [3] (first compound 2 µM) amounted to 0.405; with kb NB 142-70 + Dasatinib (first compound 0.1 µM) it was 0.509; in the assay with kb NB 142-70 + Dasatinib (first compound 1 µM), 0.559; with kb NB 142-70 + Dasatinib (first compound 3.162 µM) it was 0.543.
Regarding EBC-1, the relative viability with kb NB 142-70 + Lapatinib (first compound 0.1 µM) came to 0.233; with kb NB 142-70 + Lapatinib (first compound 1 µM), 0.211; with kb NB 142-70 + Lapatinib (first compound 3.162 µM), 0.217; in assay [2] (first compound 0.02 µM), 0.178; in assay [2] (first compound 0.06325 µM) it was 0.236; in assay [2] (first compound 0.2 µM), 0.204. For the same cell line, the relative viability in assay [2] (first compound 0.6325 µM) came out at 0.198; in assay [2] (first compound 2 µM), 0.25; in assay [3] (first compound 0.02 µM), 0.693; in assay [3] (first compound 0.06325 µM), 0.774; in assay [3] (first compound 0.2 µM), 0.836; in assay [3] (first compound 0.6325 µM), 0.623. Further, the relative viability in assay [3] (first compound 2 µM) came out at 0.7.
With HCC-44, the relative viability came out at 1.02 with kb NB 142-70 + Lapatinib (first compound 0.1 µM); 1.03 with kb NB 142-70 + Lapatinib (first compound 1 µM); 0.996 in the assay with kb NB 142-70 + Lapatinib (first compound 3.162 µM); 1.06 in assay [1] (first compound 0.1 µM); 1.06 in assay [1] (first compound 1 µM); 1.1 in assay [1] (first compound 3.162 µM). The relative viability in assay [2] (first compound 0.02 µM) worked out at 0.9; in assay [2] (first compound 0.06325 µM) it was 0.828; in assay [2] (first compound 0.2 µM), 0.853; in assay [2] (first compound 0.6325 µM) it was 0.819; in assay [2] (first compound 2 µM), 0.74; in assay [3] (first compound 0.02 µM), 1.05. The relative viability was 0.994 in assay [3] (first compound 0.06325 µM), 0.953 in assay [3] (first compound 0.2 µM), 0.941 in assay [3] (first compound 0.6325 µM) and 0.956 in assay [3] (first compound 2 µM).

Values taken from the supplement of paper PMC10307832.
